Holding throughout (assay): DTP human tumour cell line panel, 48 h
Test [1] concerns TK-10 renal.
The subject of test [2] is SF-268 CNS.
The test system of test [3] is HOP-18 NSCLC.
The subject of test [4] is OVCAR-8 ovarian.
The test system of test [5] is SK-MEL-2 melanoma.
The subject of test [6] is NCI-H460 lung.
The subject of test [7] is KM20L2 colon.
Test [8] concerns NCI-H522 lung.
In test [9] the test system is HT29 colon.
Test [10] concerns LOX IMVI melanoma.

Several values for one entry are separate records, joined by “and”; a condition that tells them apart may be missing. Equal values may be shown once.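 Cells were grown in 96-well plates and exposed to each compound for 48 hours at five concentrations; endpoints were interpolated linearly between bracketing concentrations, or set to the highest concentration if not reached. Here, GI50 denotes the concentration required for 50% inhibition of growth. TGI denotes the concentration required for complete inhibition of growth.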

`O=C(O)[C@@H](NS(=O)(=O)c1ccc([N+](=O)[O-])cc1)c1ccccc1`: the TGI in [1], in test [2], in [3], in test [4], in test [5] and in test [6] was more than 100 µM each time. Further, the TGI in [7], in test [8], in test [9] and in test [10] was more than 100 µM in each case.
In the case of `CCCCCC/C=C1\CCC(CN(C)C)C1=O` (stereo not given), the TGI is 9.14 µM in test [1]; 14.3 µM in [2]; 28.8 µM in [3]; 13.5 µM in test [4]; 26.6 µM in test [5]; 35.1 µM in test [6]. Also, the TGI in test [7] is 23.3 µM; in [8], 6.28 µM; in test [9] it was 14.5 µM; in test [10], 3.79 µM.
Consider `C[CH2][Sn]([CH2]C)([O]C(=O)c1ccc(F)cc1)[O][Sn]([CH2]C)([CH2]C)[O]C(=O)c1ccc(F)cc1`, for which the GI50 in test [1] was 23.5 µM; in [2] it was 67.4 µM; in test [3], more than 100 µM; in test [4] it was more than 100 µM; in test [5], 28.5 µM; in [6], more than 100 µM. The GI50 in test [7] was more than 100000 nM; in test [8] it was 3.01 µM; in test [9] it was more than 100000 nM; in test [10], 37.4 µM. Moreover, the TGI in [1] is 62.3 µM; in [2], more than 100 µM; in test [3], more than 100 µM; in test [4], more than 100 µM; in test [5], 83.3 µM; in test [6], more than 100 µM. The TGI was more than 100 µM in [7], 12.4 µM in [8], more than 100 µM in [9] and more than 100 µM in [10].
Consider `CCCN1C(=O)CNC(=O)c2[nH]cnc21`, for which the TGI in test [1], in [2], in test [3], in test [4], in [5] and in [6] was more than 100 µM in each case. For the same molecule, the TGI in [7], in test [8], in test [9] and in test [10] was more than 100 µM each time.
For `CCCCCCCCCCCCC(CCCCCCCCCCCC)OP(=O)(O)O`, the TGI in test [1], in [2], in test [3], in [4], in [5] and in test [6] was more than 100 µM in each case. Moreover, the TGI in test [7], in test [8], in test [9] and in test [10] was more than 100 µM throughout.
Consider `Cc1ccc(NC(=O)CC2C(=O)Nc3ccccc3S2=O)c(C)c1` (stereo not given), for which the TGI was 56.5 µM in test [1]; 65.3 µM in test [2]; 67.4 µM in test [3]; 34.1 µM in [4]; 35.9 µM in test [5]; more than 64.3 µM in [6]. The TGI in [7] is more than 49.1 µM; in [8], 22 µM; in test [9] it was 20.4 µM; in test [10], more than 87.7 µM.
On to `COC(C)(C)[C@H](O)C(O)CC(C)[C@@H]1CCC23CC12CCC1[C@@]2(C)CCC(OC(C)=O)C(C)(C)C2CC(OC2OC(COC(C)=O)C(O)C(O)C2O)[C@]13C` (stereo not given in full), for which the GI50 was 10.7 µM in test [1]; 6.87 µM in [2]; 4.15 µM in [3]; 6.13 µM in test [4]; 4.34 µM in test [5]; 4.69 µM in [6]. The GI50 in test [7] is 2630 nM; in test [8], 3.85 µM; in test [9], 1830 nM; in test [10], 4.04 µM. For the same molecule, the TGI in test [1] is 14.9 µM and 23.4 µM; in test [2], 12.4 µM and 21.3 µM; in test [3], 19.7 µM and 13.3 µM; in test [4] it was 14 µM and 20.7 µM; in [5], 17.6 µM and 14.8 µM; in test [6], 10.3 µM and 14.7 µM. In addition, the TGI in [7] was 2.12 µM and 7.94 µM; in [8] it was 6.72 µM and 17.7 µM; in test [9] it was 2.49 µM and 3.67 µM; in [10], 9.97 µM and 15.9 µM.
As for `c1ccc2c(CNCCCCCCCCCCCCNCc3cccc4ccccc34)cccc2c1`, the TGI in [1] is 4.74 µM; in [2], 4.84 µM; in test [3] it was 9.56 µM; in test [4] it was 3.13 µM; in test [5], 2.93 µM; in test [6], 2.95 µM. The TGI in test [7] came out at 3.37 µM; in test [8], 3.35 µM; in test [9], 3.03 µM; in [10], 2.52 µM.
Regarding `C=C(CN(C)C)C(=O)c1ccc(Oc2ccccc2)cc1`, the TGI was found to be 14.5 µM in test [1]; 32.5 µM in [2]; 13.3 µM in [3]; 25.3 µM in test [4]; 19.6 µM in test [5]; 51.6 µM in [6]. Moreover, the TGI in test [7] amounted to 27.5 µM; in test [8], 2.72 µM; in test [9], 34.3 µM; in test [10] it was 28.5 µM.
On to `O=C(C=Nc1ccccc1C(=O)[O-])c1cccs1.O=C(C=Nc1ccccc1C(=O)[O-])c1cccs1.[Zn+2]`, for which the TGI is more than 100 µM in [1]; 79.8 µM in test [2]; more than 100 µM in test [3]; more than 100 µM in [4]; 52.1 µM in test [5]; more than 100 µM in [6]. For the same molecule, the TGI in test [7] is more than 100 µM; in [8] it was 47.9 µM; in test [9], more than 100 µM; in test [10], 71.5 µM.
As to `FC(F)(F)c1nc(-c2ccccc2)oc1Sc1oc(-c2ccccc2)nc1C(F)(F)F`, the total growth inhibition concentration (TGI) in test [1], in test [2], in [3], in test [4], in test [5] and in test [6] was more than 100 µM each time. For the same molecule, the TGI in test [7], in [8], in test [9] and in [10] was more than 100 µM each time.

Source of the values: PubChem BioAssay (NCI).
